The values that follow come from US7241791B2, “Substituted 4-(indazol-3-yl)phenols” (Wyeth, priority 2002, dated 2007).

Test [1] deals with T1, human ERα (Homo sapiens, UniProt P03372).
T1 sequence (P03372 1-595): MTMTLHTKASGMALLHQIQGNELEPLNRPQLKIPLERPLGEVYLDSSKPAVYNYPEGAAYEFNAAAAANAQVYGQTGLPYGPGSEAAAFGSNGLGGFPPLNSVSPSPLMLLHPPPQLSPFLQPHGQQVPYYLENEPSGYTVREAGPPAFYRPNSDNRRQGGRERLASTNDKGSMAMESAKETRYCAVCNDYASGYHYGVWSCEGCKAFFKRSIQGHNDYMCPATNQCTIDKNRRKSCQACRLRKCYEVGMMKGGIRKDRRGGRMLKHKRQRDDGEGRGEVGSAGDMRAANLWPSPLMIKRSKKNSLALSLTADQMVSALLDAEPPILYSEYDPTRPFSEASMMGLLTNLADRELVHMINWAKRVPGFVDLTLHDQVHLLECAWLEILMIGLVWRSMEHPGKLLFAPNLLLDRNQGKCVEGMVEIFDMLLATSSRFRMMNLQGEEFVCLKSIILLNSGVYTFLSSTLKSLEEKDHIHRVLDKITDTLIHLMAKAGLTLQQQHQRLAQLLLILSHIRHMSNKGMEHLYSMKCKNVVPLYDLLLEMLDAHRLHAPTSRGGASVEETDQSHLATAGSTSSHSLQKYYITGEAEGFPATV
Kind of test: Creatine kinase expression (ER/CK) in Ad5-wt-hERα infected HAECT-1 cells. Conditions: for ER/CK % E2: efficacy relative to the maximal stimulation observed with E2.

Test [2] addresses T1, human ERα. Kind of test: NF-κB luciferase reporter (ER/NF-KB-luc) in Ad5-wt-hERα infected HAECT-1 cells. The note with it: for pIC50: ER/NF-KB-luc IC50, Ad5-wt-ER infected HAECT-1 cells, IL-1β; for Emax: HAECT1, read-out: ER/NF-KB-luc % E2, efficacy relative to the maximal inhibition observed with E2.

Structures are written as SMILES. pEC50, pIC50: −log10 of the molar value.

As a reminder, the pEC50 is the negative decadic logarithm of the EC50, by convention in mol/L. Usually pIC50 stands for the IC50 on a negative log10 scale, so that one unit is a factor of ten. Low values mean a high IC50, high ones a low IC50. Turning to `Cc1cccc2c(-c3ccc(O)cc3)n[nH]c12` [Example 34, 4-(7-methyl-1H-indazol-3-yl) phenol], at human ERα [1], the negative logarithm of the EC50 (pEC50) was 6.86 and the “ER/CK % E2” value is 87 % E2. Further, at human ERα [2], the negative-log IC50 (pIC50) is 7.18 and the Emax was 115%.

Turning to `CCCn1nc2c(C)cccc2c1-c1ccc(O)cc1` [Example 38, 4-[7-methyl-2-propyl-2H-indazol-3-yl]phenol], at human ERα [1], the pEC50 was 7.60 and the “ER/CK % E2” value is listed as 70 % E2. Further, the Emax at human ERα [2] turned out to be 89%.

For the molecule `Cc1cccc2c(-c3ccc(O)cc3)nn(C(C)C)c12` [Example 39, 4-(1-isopropyl-7-methyl-1H-indazol-3-yl)phenol], on human ERα [1], the pEC50 was 7.24 and the “ER/CK % E2” value is recorded as 46 % E2. Further, on human ERα [2], the pIC50 was 8.05 and the Emax was determined as 89%.

Take `Cc1cccc2c(-c3ccc(O)cc3)n(C(C)C)nc12` [Example 40, 4-[2-isopropyl-7-methyl-2H-indazol-3-yl]phenol]: at human ERα [1], the pEC50 is 7.66 and the “ER/CK % E2” value was determined as 79 % E2. The Emax on human ERα [2] stood at 108%.

As for `CCCCCn1nc(-c2ccc(O)cc2)c2cccc(Cl)c21` [Example 41, 4-(7-chloro-1-pentyl-1H-indazol-3-yl)phenol], on human ERα [1], the negative-log EC50 (pEC50) was 6.38 and the “ER/CK % E2” value came to 39 % E2. In addition, on human ERα [2], the pIC50 is 7.02 and the Emax was 85%.

With `CCCn1nc2c(Cl)cccc2c1-c1ccc(O)cc1` [Example 44, 4-[7-chloro-2-propyl-2H-indazol-3-yl]phenol], on human ERα [1], the pEC50 is 6.51 and the “ER/CK % E2” value is reported as 48 % E2. In addition, on human ERα [2], the pIC50 was 7.37 and the Emax is 90%.

Consider `CC(C)n1nc(-c2ccc(O)cc2)c2cccc(Cl)c21` [Example 45, 4-(7-chloro-1-isopropyl-1H-indazol-3-yl)pheno], for which, on human ERα [1], the pEC50 was 6.92 and the “ER/CK % E2” value came to 43 % E2. Moreover, at human ERα [2], the pIC50 was 7.51 and the Emax was 86%.

On to `CC(C)n1nc2c(Cl)cccc2c1-c1ccc(O)cc1` [Example 46, 4-(7-chloro-2-isopropyl-2H-indazol-3-yl)phenol], for which the “ER/CK % E2” value at human ERα [1] stood at 67 % E2. The Emax on human ERα [2] came to 102%.

With `CCCCCn1nc(-c2ccc(O)cc2)c2cccc(C(F)(F)F)c21` [Example 47, 4-[1-pentyl-7-(trifluoromethyl)-1H-indazol-3-yl]phenol], on human ERα [1], the pEC50 is 7.89 and the “ER/CK % E2” value is reported as 26 % E2. Also, at human ERα [2], the negative logarithm of the IC50 (pIC50) is 7.01 and the Emax stood at 94%.

On to `CCCn1nc(-c2ccc(O)cc2)c2cccc(C(F)(F)F)c21` [Example 48, 4-[1-propyl-7-(trifluoromethyl)-1H-indazol-3-yl]phenol], for which, at human ERα [1], the pEC50 is 7.10 and the “ER/CK % E2” value was 49 % E2. On human ERα [2], the pIC50 was 7.38 and the Emax amounted to 107%.

`C=CCn1nc(-c2ccc(O)cc2)c2cccc(F)c21` [Example 50, 4-(1-allyl-7-fluoro-1H-indazol-3-yl)phenol]: on human ERα [1], the negative-log EC50 (pEC50) was 6.49 and the “ER/CK % E2” value stood at 43 % E2. For the same molecule, at human ERα [2], the pIC50 was 6.97 and the Emax is 84%.

Turning to `Oc1ccc(-c2c3cccc(Cl)c3nn2C2CCCC2)cc1` [Example 52, 4-(7-chloro-2-cyclopentyl-2H-indazol-3-yl)phenol], on human ERα [1], the pEC50 was 6.95 and the “ER/CK % E2” value amounted to 27 % E2. On human ERα [2], the pIC50 is 7.77 and the Emax amounted to 76%.

Regarding `CCCn1nc(-c2ccc(O)cc2)c2cccc(F)c21` [Example 53, 4-(7-fluoro-1-propyl-1H-indazol-3-yl)phenol], at human ERα [1], the pEC50 was 6.74 and the “ER/CK % E2” value is on record as 31 % E2. Besides, at human ERα [2], the pIC50 was 7.24 and the Emax turned out to be 84%.

As to `CC(C)n1nc(-c2ccc(O)cc2)c2cccc(F)c21` [Example 55, 4-(7-fluoro-1-isopropyl-1H-indazol-3-yl)phenol], at human ERα [1], the negative logarithm of the EC50 (pEC50) was 6.40 and the “ER/CK % E2” value came out at 49 % E2. On human ERα [2], the negative-log IC50 (pIC50) was 7.59 and the Emax worked out at 90%.

As for `CC(C)n1nc2c(F)cccc2c1-c1ccc(O)cc1` [Example 56, 4-(7-fluoro-2-isopropyl-2H-indazol-3-yl)phenol], at human ERα [1], the negative logarithm of the EC50 (pEC50) is 6.32 and the “ER/CK % E2” value is 47 % E2. At human ERα [2], the pIC50 was 7.85 and the Emax worked out at 96%.

As for `C=CCn1nc(-c2ccc(O)cc2)c2cccc(C)c21` [Example 57, 4-(1-allyl-7-methyl-1H-indazol-3-yl)phenol], on human ERα [1], the pEC50 was 6.69 and the “ER/CK % E2” value was determined as 45 % E2. At human ERα [2], the negative logarithm of the IC50 (pIC50) was 7.35 and the Emax was determined as 89%.

With `C=CCn1nc(-c2ccc(O)cc2)c2cccc(C(F)(F)F)c21` [Example 58, 4-[1-allyl-7-(trifluoromethyl)-1H-indazol-3-yl]phenol], at human ERα [1], the pEC50 was 7.01 and the “ER/CK % E2” value was 38 % E2. In addition, at human ERα [2], the pIC50 was 7.70 and the Emax amounted to 100%.

As to `C=CCn1nc2c(C(F)(F)F)cccc2c1-c1ccc(O)cc1` [Example 59, 4-[2-allyl-7-(trifluoromethyl)-2H-indazol-3-yl]phenol], on human ERα [1], the negative-log EC50 (pEC50) was 6.88 and the “ER/CK % E2” value was determined as 36 % E2. Further, on human ERα [2], the pIC50 is 8.30 and the Emax was 90%.

In the case of `Oc1ccc(-c2c3cccc(F)c3nn2C2CCCC2)cc1` [Example 61, 4-(2-cyclopentyl-7-fluoro-2H-indazol-3-yl)phenol], at human ERα [1], the negative-log EC50 (pEC50) is 7.12 and the “ER/CK % E2” value turned out to be 33 % E2. In addition, at human ERα [2], the negative logarithm of the IC50 (pIC50) was 7.30 and the Emax stood at 62%.

Take `CC(C)n1nc(-c2ccc(O)cc2O)c2cccc(C(F)(F)F)c21` [Example 65, 4-[1-isopropyl-7-(trifluoromethyl)-1H-indazol-3-yl]benzene-1,3-diol]: on human ERα [1], the pEC50 was 6.66 and the “ER/CK % E2” value is reported as 42 % E2. Moreover, on human ERα [2], the negative-log IC50 (pIC50) is 7.39 and the Emax came out at 86%.

For the molecule `Oc1ccc(-c2nn(C3CCCC3)c3c(C(F)(F)F)cccc23)c(O)c1` [Example 66, 4-[1-cyclopentyl-7-(trifluoromethyl)-1H-indazol-3-yl] benzene-1,3-diol], at human ERα [1], the pEC50 is 7.77 and the “ER/CK % E2” value worked out at 32 % E2. Moreover, at human ERα [2], the pIC50 is 7.54 and the Emax came out at 56%.

`CCC(CC)Cn1nc(-c2ccc(O)cc2O)c2cccc(C(F)(F)F)c21` [Example 69, 4-[1-(2-ethylbutyl)-7-(trifluoromethyl)-1H-indazol-3-yl]benzene-1,3-diol]: at human ERα [1], the negative logarithm of the EC50 (pEC50) was 6.15 and the “ER/CK % E2” value is recorded as 32 % E2. On human ERα [2], the pIC50 is 6.63 and the Emax was determined as 68%.

Regarding `C=CCn1nc2c(C(F)(F)F)cccc2c1-c1ccc(O)cc1C` [Example 72, 4-[2-allyl-7-(trifluoromethyl)-2H-indazol-3-yl]-3-methylphenol], on human ERα [1], the pEC50 is 6.85 and the “ER/CK % E2” value stood at 46 % E2. Moreover, at human ERα [2], the pIC50 was 8.15 and the Emax was 85%.

Regarding `CCCCCn1nc(-c2ccc(O)cc2O)c2cccc(C(F)(F)F)c21` [Example 73, 4-[1-pentyl-7-(trifluoromethyl)-1H-indazol-3-yl]benzen-1,3-diol], on human ERα [1], the negative-log EC50 (pEC50) is 6.99 and the “ER/CK % E2” value is reported as 19 % E2. Besides, at human ERα [2], the pIC50 is 7.03 and the Emax is 76%.
